pIC50: −log10 of the molar value. Read-outs that look alike come from different tables or passages of the source.
Tests used:
MKK4 [1] = target: T1, MKK4 (Homo sapiens, UniProt P45985); experiment: KINOMEscan competition binding assay, MKK4; details: residual percent of control binding (PoC) at 100 nM
T1 construct: S84/D399; host or cells: HEK-293
T1 sequence (P45985 84-399): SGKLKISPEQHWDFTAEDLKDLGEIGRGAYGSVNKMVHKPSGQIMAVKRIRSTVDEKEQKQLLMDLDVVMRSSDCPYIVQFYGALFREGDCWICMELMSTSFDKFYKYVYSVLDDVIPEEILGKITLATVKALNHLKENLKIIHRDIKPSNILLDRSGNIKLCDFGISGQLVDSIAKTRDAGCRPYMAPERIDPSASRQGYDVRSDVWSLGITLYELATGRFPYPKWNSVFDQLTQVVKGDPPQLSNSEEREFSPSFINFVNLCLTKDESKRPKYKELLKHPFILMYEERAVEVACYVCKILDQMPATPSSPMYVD
Procedure: (§1) The assay was performed by combining three components: DNA-tagged kinase; immobilized ligand; and a test compound. The ability of the test compound to compete with the immobilized ligand was measured via quantitative PCR of the DNA tag. The technology is described in detail in Fabian, M. A. et al. A small molecule-kinase interaction map for clinical kinase inhibitors. Nat. […] Nat.
(§2) For investigation of the affinity to MKK4, BRaf, MKK7 and JNK1, the kinases were produced in HEK-293 cells and subsequently tagged with DNA for qPCR detection. […] The liganded beads were blocked with excess biotin and washed with blocking buffer (SEABLOCK™ (Pierce), 1% BSA, 0.05% TWEEN®20, 1 mM DTT) to remove unbound ligand and to reduce nonspecific binding. […] All reactions were performed in polystyrene 96-well plates in a final volume of 0.135 mL. […] The kinase concentration in the eluates was measured by qPCR.
(§3) The test compounds were provided as 10 mM stock solutions. The test solutions at indicated final concentrations were prepared at DiscoverX.
Potency of representative examples against the protein kinases MKK4, BRaf, MKK7 and JNK1 expressed as residual percent of control binding (PoC), was determined at a concentration of 100 nM. The determined potencies are categorized as follows: […]

JNK1 = JNK1 (Homo sapiens, UniProt P45983); experiment: KINOMEscan competition binding assay, JNK1; set-up: M1/Q384; host or cells: HEK-293; details: ratio PoC (off-target)/PoC (MKK4)
Procedure: as §1, §2, §3
(§4) Potency of representative examples against the protein kinases MKK4, BRaf, MKK7 and JNK1 expressed as residual percent of control binding (PoC), was determined at a concentration of 100 nM. The determined potencies are categorized as follows:
(§5) The binding selectivity of representative examples against the protein kinases BRaf, MKK7 and JNK1, altogether denominated as “off-targets” is determined by the ratios of PoC (off-target)/PoC (MKK4).

MKK4 [2] = target: T2, MKK4 (Homo sapiens, UniProt P45985); experiment: 33PanQinase enzyme assay, MKK4; assay type: biochemical; details: for remaining activity at 0.1 µM: read-out: Potency MKK4 (residual activity, assay at single concentration)
T2 construct: purchased ProQinase GmbH, Freiburg, Germany (33PanQinase Assay Service)
T2 sequence (P45985 1-399): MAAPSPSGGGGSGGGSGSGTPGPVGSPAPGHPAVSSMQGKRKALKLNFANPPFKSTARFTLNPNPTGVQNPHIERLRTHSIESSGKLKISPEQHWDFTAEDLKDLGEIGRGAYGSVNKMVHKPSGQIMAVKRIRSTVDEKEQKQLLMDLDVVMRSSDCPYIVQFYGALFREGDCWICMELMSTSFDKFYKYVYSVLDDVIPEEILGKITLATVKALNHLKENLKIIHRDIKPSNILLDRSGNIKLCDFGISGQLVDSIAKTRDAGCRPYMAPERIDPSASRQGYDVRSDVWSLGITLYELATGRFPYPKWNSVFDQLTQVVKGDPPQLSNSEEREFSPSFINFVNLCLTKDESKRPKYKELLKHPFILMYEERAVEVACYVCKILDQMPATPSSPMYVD
Summary of the method: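 Inhibition measured as 33Pi transfer to substrate after a 60-min, 30 °C reaction, acid-stopped and scintillation-counted.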

MKK7 = target: T3, MKK7 (Homo sapiens, UniProt O14733); experiment: KINOMEscan competition binding assay, MKK7; set-up: M1/R419; host or cells: HEK-293; details: ratio PoC (off-target)/PoC (MKK4)
T3 sequence (O14733 1-419): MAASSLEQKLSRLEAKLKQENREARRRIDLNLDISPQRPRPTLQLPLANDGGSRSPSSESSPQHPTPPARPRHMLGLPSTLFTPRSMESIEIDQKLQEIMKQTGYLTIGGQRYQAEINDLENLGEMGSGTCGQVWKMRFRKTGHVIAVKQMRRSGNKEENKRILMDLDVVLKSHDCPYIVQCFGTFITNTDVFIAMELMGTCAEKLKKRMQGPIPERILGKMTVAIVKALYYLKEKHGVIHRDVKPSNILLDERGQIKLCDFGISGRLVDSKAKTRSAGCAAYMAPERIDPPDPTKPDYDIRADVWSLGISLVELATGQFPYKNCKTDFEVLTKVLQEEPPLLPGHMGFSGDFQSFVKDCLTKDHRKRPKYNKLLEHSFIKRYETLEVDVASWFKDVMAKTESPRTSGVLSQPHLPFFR
Procedure: as §1, §2, §3, §4, §5

BRaf = target: T4, BRaf (Homo sapiens, UniProt P15056); experiment: KINOMEscan competition binding assay, BRaf; details: ratio PoC (off-target)/PoC (MKK4)
T4 construct: purchased ProQinase GmbH, Freiburg, Germany (33PanQinase Assay Service)
Procedure: as §1, §2, §3, §4, §5

Sequence of JNK1 (P45983 1-384 isoform P45983-2): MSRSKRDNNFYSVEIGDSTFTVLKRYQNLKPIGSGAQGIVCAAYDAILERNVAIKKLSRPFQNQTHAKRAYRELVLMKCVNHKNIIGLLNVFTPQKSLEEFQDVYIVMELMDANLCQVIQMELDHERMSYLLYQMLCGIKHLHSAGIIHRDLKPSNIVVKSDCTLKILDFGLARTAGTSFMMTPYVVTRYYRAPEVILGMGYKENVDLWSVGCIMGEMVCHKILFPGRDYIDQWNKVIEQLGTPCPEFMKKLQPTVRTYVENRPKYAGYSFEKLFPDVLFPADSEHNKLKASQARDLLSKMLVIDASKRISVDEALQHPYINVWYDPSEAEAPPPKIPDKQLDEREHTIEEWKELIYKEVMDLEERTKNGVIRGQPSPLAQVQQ
T4 sequence (P15056 whole entry, species assumed): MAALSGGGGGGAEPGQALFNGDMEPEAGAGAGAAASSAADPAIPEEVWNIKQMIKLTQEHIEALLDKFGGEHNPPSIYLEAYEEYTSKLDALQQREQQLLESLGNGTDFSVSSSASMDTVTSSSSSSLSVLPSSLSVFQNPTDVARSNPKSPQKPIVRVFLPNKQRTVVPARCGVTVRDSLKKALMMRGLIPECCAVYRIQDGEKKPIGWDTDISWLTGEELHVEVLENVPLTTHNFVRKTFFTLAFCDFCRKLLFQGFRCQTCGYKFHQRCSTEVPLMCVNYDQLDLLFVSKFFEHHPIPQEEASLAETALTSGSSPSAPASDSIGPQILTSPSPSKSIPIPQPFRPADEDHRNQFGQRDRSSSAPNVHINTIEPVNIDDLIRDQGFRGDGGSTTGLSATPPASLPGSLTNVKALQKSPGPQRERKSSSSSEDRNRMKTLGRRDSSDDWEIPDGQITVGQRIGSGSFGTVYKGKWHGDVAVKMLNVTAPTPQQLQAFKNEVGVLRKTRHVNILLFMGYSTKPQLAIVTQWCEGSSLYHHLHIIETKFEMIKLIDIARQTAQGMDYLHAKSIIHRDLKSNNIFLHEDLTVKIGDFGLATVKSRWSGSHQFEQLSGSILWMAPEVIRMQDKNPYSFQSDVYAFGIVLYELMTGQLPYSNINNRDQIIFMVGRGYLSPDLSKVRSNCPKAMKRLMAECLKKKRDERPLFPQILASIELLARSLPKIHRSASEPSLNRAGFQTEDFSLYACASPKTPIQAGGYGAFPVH

SMILES	MKK4 [% Ctrl @ 100 nM (MKK4 [1])	selectivity based on % Ctrl @100 nM vs. JNK1 (JNK1)	remaining activity at 0.1 µM (MKK4 [2]; single concentration 100 nM) [%]	selectivity based on % Ctrl @100 nM vs. MKK7 (MKK7)	selectivity based on % Ctrl @100 nM vs. Braf (BRaf)	pIC50 (MKK4 [2]; assay 'IC50', read-out: Potency MKK4 (IC50))	remaining activity at 0.1 µM (MKK4 [2]) [%]
CCCS(=O)(=O)Nc1ccc(Br)c(C(=O)c2c[nH]c3ncc(-c4ccc(Cl)cc4)cc23)c1Br [Example 2b, N-(2,4-dibromo-3-(5-(4-chlorophenyl)-1H-pyrrolo[2,3-b]pyridine-3-carbonyl)phenyl)propane-1-sulfonamide]	◯ (30 ≤ PoC)	◯ (3 ≥ Ratio)	70 to 90	◯ (3 ≥ Ratio)	◯ (3 ≥ Ratio)	–	–
CCCS(=O)(=O)Nc1ccc(F)c(C(=O)c2c[nH]c3ncc(-c4ccccc4F)cc23)c1F [Example 34, N-(2,4-difluoro-3-(5-(2-fluorophenyl)-1H-pyrrolo[2,3-b]pyridine-3-carbonyl)phenyl)propane-1-sulfonamide]	+ (3 ≤ PoC < 30)	++ (100 ≥ ratio > 10)	70 to 90	++ (100 ≥ ratio > 10)	++ (100 ≥ ratio > 10)	–	–
CCCS(=O)(=O)Nc1c(Cl)ccc(C(=O)c2c[nH]c3ncc(-c4ccc(Cl)cc4)cc23)c1F [Example 2d]	+ (3 ≤ PoC < 30)	+ (10 ≥ ratio > 3)	70 to 90	+ (10 ≥ ratio > 3)	+ (10 ≥ ratio > 3)	–	–
CCCS(=O)(=O)Nc1ccc(C#N)c(C(=O)c2c[nH]c3ncc(-c4ccc(Cl)cc4)cc23)c1C#N [Example 62, N-(3-(5-(4-chlorophenyl)-1H-pyrrolo[2,3-b]pyridine-3-carbonyl)-2,4-dicyanophenyl)propane-1-sulfonamide]	◯ (30 ≤ PoC)	◯ (3 ≥ Ratio)	> 90	◯ (3 ≥ Ratio)	◯ (3 ≥ Ratio)	–	–
CCCS(=O)(=O)Nc1ccc(F)c(C(=O)c2c[nH]c3ncc(-c4ccccn4)cc23)c1F [Example 47]	++ (1 ≤ PoC < 3)	++ (100 ≥ ratio > 10)	–	++ (100 ≥ ratio > 10)	+ (10 ≥ ratio > 3)	5.00 to 6.00	–
Cc1cccc(CS(=O)(=O)Nc2ccc(F)c(C(=O)c3c[nH]c4ncc(-c5ccc(Cl)cc5)cc34)c2F)c1 [Example 37, N-(3-(5-(4-chlorophenyl)-1H-pyrrolo[2,3-b]pyridine-3-carbonyl)-2,4-difluoro-phenyl)-1-(m-tolyl)methanesulfonamide]	+ (3 ≤ PoC < 30)	+ (10 ≥ ratio > 3)	–	+ (10 ≥ ratio > 3)	+ (10 ≥ ratio > 3)	–	70 to 90
O=C(c1c(F)ccc(NS(=O)(=O)Cc2ccccc2)c1F)c1c[nH]c2ncc(-c3ccc(OCC(O)CO)cc3)cc12 (stereo not shown) [Example 40, N-(3-(5-(4-(2,3-dihydroxypropoxy)phenyl)-1H-pyrrolo [2,3-b]pyridine-3-carbonyl)-2,4-difluorophenyl)-1-phenylmethanesulfonamide]	+++ (PoC < 1)	+++ (Ratio > 100)	70 to 90	+++ (Ratio > 100)	+++ (Ratio > 100)	–	–
CCCS(=O)(=O)Nc1ccc(F)c(C(=O)c2c[nH]c3ncc(-c4cccc(Cl)c4)cc23)c1F [Example 32, N-(3-(5-(3-chlorophenyl)-1H-pyrrolo[2,3-b]pyridine-3-carbonyl)-2,4-difluorophenyl)propane-1-sulfonamide]	+ (3 ≤ PoC < 30)	+ (10 ≥ ratio > 3)	70 to 90	+ (10 ≥ ratio > 3)	◯ (3 ≥ Ratio)	–	–

Source: patent publication US11912701B2, “Protein kinase inhibitors for promoting liver regeneration or reducing or preventing hepatocyte death” (HEPAREGENIX GMBH, priority 2018, dated 2024)
